According to patent publication US20200297798A1, “KEY AMINO ACID SITES […] EXPORT OF NUC[…] INFLUENZA A AND B VIRUSES AND USE THEREOF AS ANTI-INFLUENZA VIRUS DRUG TARGETS” (INSTITUTE OF MICROBIOLOGY, CHINESE ACADEMY OF SCIENCES, priority 2017, published 2020):
“And” between values parts separate entries of the source, which are not always exact repeats. Equal values may be shown once. Read-outs that look alike come from different tables or passages of the source.

Columns and labels:
influenza B virus Lee40 [1] = test system: influenza B virus Lee40; design: species or system BALB/c mice; conditions: mouse, in vivo
[2] = test system: influenza A virus WSN A/WSN/1933 (H1N1); design: species or system BALB/c mice; conditions: mouse, in vivo
[3] = molecular target: influenza B virus nucleoprotein (BNP) (Influenza B virus, UniProt P04665); conditions: ITC; protein BNP
Chain of influenza B virus nucleoprotein (BNP) (P04665 whole entry): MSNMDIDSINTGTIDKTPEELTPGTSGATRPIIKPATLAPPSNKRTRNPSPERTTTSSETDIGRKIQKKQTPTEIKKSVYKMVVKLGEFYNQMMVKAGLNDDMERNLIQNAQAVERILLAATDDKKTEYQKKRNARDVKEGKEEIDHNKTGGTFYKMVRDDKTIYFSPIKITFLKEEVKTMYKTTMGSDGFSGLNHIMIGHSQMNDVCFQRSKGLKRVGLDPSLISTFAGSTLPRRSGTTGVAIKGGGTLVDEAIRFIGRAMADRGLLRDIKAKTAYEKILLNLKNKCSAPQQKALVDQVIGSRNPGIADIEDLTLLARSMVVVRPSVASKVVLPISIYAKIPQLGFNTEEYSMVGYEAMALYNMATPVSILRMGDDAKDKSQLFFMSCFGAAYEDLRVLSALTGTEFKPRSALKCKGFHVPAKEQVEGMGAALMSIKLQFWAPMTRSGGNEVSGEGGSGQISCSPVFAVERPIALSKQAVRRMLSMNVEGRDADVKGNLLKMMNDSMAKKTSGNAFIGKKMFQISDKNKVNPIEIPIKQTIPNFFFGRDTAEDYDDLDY

binding of BNP to CRM1 = binding of BNP to CRM1 (Influenza B virus, UniProt P04665)
Chain of binding of BNP to CRM1 (P04665 whole entry): as above

[4] = test system: influenza A virus WSN A/WSN/1933 (H1N1); conditions: A549 cells, MOI=0.1, 12 ng naproxen per dish, FIG. 8A
[5] = molecular target: influenza A virus nucleoprotein (ANP) (Influenza A virus, UniProt P15682); conditions: ITC; protein ANP
Chain of influenza A virus nucleoprotein (ANP) (P15682 whole entry): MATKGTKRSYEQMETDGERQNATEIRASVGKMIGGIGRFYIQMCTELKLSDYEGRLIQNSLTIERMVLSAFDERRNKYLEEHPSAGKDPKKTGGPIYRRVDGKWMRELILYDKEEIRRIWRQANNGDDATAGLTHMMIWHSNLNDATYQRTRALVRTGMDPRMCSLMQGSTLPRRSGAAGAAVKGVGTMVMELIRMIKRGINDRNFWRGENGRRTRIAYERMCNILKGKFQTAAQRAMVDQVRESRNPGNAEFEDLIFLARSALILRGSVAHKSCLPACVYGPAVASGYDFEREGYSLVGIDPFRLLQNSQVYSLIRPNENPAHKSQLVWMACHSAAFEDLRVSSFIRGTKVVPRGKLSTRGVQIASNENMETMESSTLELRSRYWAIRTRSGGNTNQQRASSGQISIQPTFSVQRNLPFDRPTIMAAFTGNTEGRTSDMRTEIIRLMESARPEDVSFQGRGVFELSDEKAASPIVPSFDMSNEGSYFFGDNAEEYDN

influenza B virus Lee40 [6] = conditions: A549 cells, MOI=1, 12 ng naproxen per dish, FIG. 8B
binding of ANP to CRM1 = binding of ANP to CRM1 (Influenza A virus, UniProt P15682)
Chain of binding of ANP to CRM1 (P15682 whole entry): as above

Question: Which results are given for CCOC(=O)C1=C[C@@H](OC(CC)CC)[C@H](NC(C)=O)[C@@H](N)C1 [oseltamivir]?
Answer: body weight course after infection (influenza B virus Lee40 [1]): slowly recovered; survival rate (influenza B virus Lee40 [1]): 37.5%; body weight course after infection [2]: slowly recovered; lung index (lung mass/body weight) [2]: lung indexes were lower; lung injuries (macroscopical lesions) [2]: lung injuries were milder; survival rate [2]: 100%; viral load of the lung, treatment effect [2]: better

Question: With COc1ccc2cc(C(C)C(=O)O)ccc2c1 (stereo not drawn) [naproxen, (+) α-methyl-6-methoxy-2-naphthaleneacetic acid] as the molecule, how does the “n (stoichiometry)” value [3] read?
Answer: 0.93

Question: What about the ΔH [3] of the same molecule?
Answer: -1.36 kJ/mol

Question: And the ΔS [3]?
Answer: 138.40 J/mol · K

Question: And the “body weight course after infection” value (influenza B virus Lee40 [1])?
Answer: slowly recovered

Question: And the “lung injuries (macroscopical lesions)” value (influenza B virus Lee40 [1])?
Answer: lung injuries were milder

Question: And the “viral load of the lung, treatment effect” value (influenza B virus Lee40 [1])?
Answer: better

Question: What about the survival rate (influenza B virus Lee40 [1]; ip) of the same molecule?
Answer: 75% and 100%

Question: What about the “binding of BNP to CRM1” value (binding of BNP to CRM1) of the same molecule?
Answer: did not bind to CRM1

Question: What about the “body weight course after infection” value [2] of the same molecule?
Answer: slowly recovered

Question: What about the “lung injuries (macroscopical lesions)” value [2] of the same molecule?
Answer: lung injuries were milder

Question: And the “viral load of the lung, treatment effect” value [2]?
Answer: better

Question: And the “virus titer versus untreated cells” value [4]?
Answer: significant decrease in virus titer

Question: What about the “n (stoichiometry)” value [5] of the same molecule?
Answer: 1.23

Question: What about the ΔH [5] of the same molecule?
Answer: -5.57 kJ/mol

Question: And the ΔS [5]?
Answer: 64.76 J/mol · K

Question: And the “virus titer versus untreated cells” value (influenza B virus Lee40 [6])?
Answer: significant decrease in virus titer

Question: What about the “binding of ANP to CRM1” value (binding of ANP to CRM1) of the same molecule?
Answer: did not bind to CRM1
